Where no end group is shown, it is not given here.

From publication PMC4069242 (Clinical and experimental allergy : journal of the British …, 2014) come the findings set out here.

In the assay the target is DR04:01 protein (Homo sapiens, UniProt P01903+P01911, A100K/A169T/F76Y/I96L/K127E/L162R/M171V/N62H/P40V/Q125Y/R42H/S133A/S149N/S66Y/V115G/V209L/W38E). As to the kind of experiment: Peptide binding assay.
One may read the IC50 as the concentration that inhibits the measured activity by half. The low end stands for inhibition by little substance, the high end for a need for much substance. Regarding `CC[C@H](C)[C@H](NC(=O)[C@@H](NC(=O)[C@H](CC(=O)O)NC(=O)[C@H](CCC(=O)O)NC(=O)[C@H](C)NC(=O)[C@H](CCC(=O)O)NC(=O)[C@@H](N)[C@@H](C)O)C(C)C)C(=O)N1CCC[C@H]1C(=O)N[C@@H](CCC(=O)O)C(=O)NCC(=O)N[C@@H](Cc1c[nH]c2ccccc12)C(=O)N[C@@H](CCCCN)C(=O)N[C@@H](C)C(=O)N[C@@H](CC(=O)O)C(=O)N[C@H](C(=O)N[C@@H](CO)C(=O)N[C@@H](Cc1ccc(O)cc1)C(=O)N[C@@H](CCC(=O)O)C(=O)N[C@@H](CO)C(=O)N[C@@H](CCCCN)C(=O)O)[C@@H](C)O` [Phl p 1 221-240], the IC50 came to 2920 nM.
For AAFRIAATAANAA [Holl 5a 167-186] the value was 116 nM.
On to AAFRTAATAADAA [Hor v 5a 167-186], for which the IC50 worked out at 970 nM.
As for AAYKIAATAANAA [Dac g 5a 167-186], the IC50 stood at 50 nM. This IC50 lies about 19-fold lower than the previous one.
The result for AAYRTAATAANAA [Lol p 5a 167-186] reads 532 nM; that for DSYKFIPTLVAAV [Lol p 5a 199-218], 410 nM.
The result for EAYKFIPSLETAV [Holl 5a 199-218] reads 105 nM.
The result for EEPIAPYHFDLSGHAFGAMA [Phl p 1 97-116] reads 275 nM; that for EEPIAPYHFDLSGHAFGSMA [Lol p 1 97-116], 435 nM; that for ESYKFIPALEAAV [Hor v 5a 199-218], 990 nM.
As for ESYKFIPALEAAV [Phl p 5a 199-218], the IC50 came to 970 nM.
The result for ESYKFIPTLEAAV [Dac g 5a 199-218] reads 74.6 nM; that for ETYKFIPSLEAAV [Pha a 5a 199-218], 51 nM.
The result for SEFEDVIPEGWKADTSYSAK [Lol p 1 221-240] reads 2920 nM; that for SEVEDVIPEGWKADTSYEAK [Dac g 1 221-240], 177 nM.
